Measured values taken from patent US12202835B2, “Substituted aromatic ring-linked dioxinoquinazolines and dioxinoquinolines as kinase inhibitors” (BEIJING SCITECH-MQ PHARMACEUTICALS LIMITED, priority 2018, dated 2025).
pIC50: −log10 of the molar value.

Key:
Format in all cases: biochemical
TRKA kinase = TRKA kinase (Homo sapiens (Human), UniProt P04629); experiment: Assay of small molecular compounds for inhibiting the activity of TRKA kinase (LANCE TR-FRET)
Description: The assay of small molecular compounds for inhibiting the activity of TRKA kinase is based on the LANCE TR-FRET technology of Perkin Elmer Inc., and the assay method is as follows: • 1. […] 2.5 μL of the gradient-diluted compounds were taken with a transfer pipette to a 384-well plate. • 3. Addition of enzyme: 5 μL of 2×TRKA kinase solution (with a concentration of 2 nM) was taken with a transfer pipette to the corresponding reaction well of the 384-well plate, mixed well and pre-reacted at room temperature for 5 minutes. • 4. 2.5 μL 4× Ultra ULight-labeled TK Peptide (with a concentration of 400 nM)/ATP (with a concentration of 40 μM) mixture was taken with a transfer pipette to the corresponding reaction well of the 384-well plate. • 5. Negative control: 2.5 μL/well 4× substrate/ATP mixture and 7.5 μL 1× Kinase Assay Buffer were added to the wells of the 384-well plate.
(§1) Positive control: 2.5 μL/well 4× substrate/ATP mixture, 2.5 μL/well 1× Kinase Assay Buffer containing 4% DMSO, and 5 μL/well 2×TRKA kinase solution were added to the 384-well plate. The final concentration of DMSO in the reaction system was 1%. • 6. The mixture was mixed well and then centrifuged and reacted at room temperature in dark for 60 min. • 7. Termination of the enzymatic reaction: 5 μL of 4× stop solution was taken with a transfer pipette to the wells of the 384-well plate, mixed and then centrifuged, and reacted at room temperature for 5 min. • 8. Development of the reaction: 5 μL of 4× detection solution was taken with a transfer pipette to the wells of the 384-well plate for color development, and the mixture was mixed and then centrifuged and reacted at room temperature for 60 min. • 9. The 384-well plate was placed into the Envision plate reader and the signal was detected using the appropriate program.

c-MET kinase = c-MET kinase (Homo sapiens (Human), UniProt P08581); experiment: Assay of small molecular compounds for inhibiting the activity of c-MET kinase (LANCE TR-FRET); conditions: read-out: CMET IC50
Description: The assay is based on the LANCE TR-FRET technology of Perkin Elmer Inc., and the assay method is as follows: • 1. Dilution of compounds: a total of 11 concentrations were obtained using a 3-fold gradient dilution from the highest concentration of 2500 nM (the maximum final concentration of the drug used in this assay was 2500 nM, and the minimum final concentration was 0.042 nM). • 2. 2.5 μL of the gradient-diluted compounds were taken with a transfer pipette to a 384-well plate. • 3. Addition of enzyme: 5 μL of 2×c-MET kinase solution (with a concentration of 2 nM) was taken with a transfer pipette to the corresponding reaction well of the 384-well plate, mixed well and pre-reacted at room temperature for 5 minutes. • 4. 2.5 μL 4× Ultra ULight™-JAK-1 (Tyr1023) Peptide (with a concentration of 400 nM)/ATP (with a concentration of 40 μM) mixture was taken with a transfer pipette to the corresponding reaction well of the 384-well plate. • 5. Negative control: 2.5 μL/well 4× substrate/ATP mixture and 7.5 μL 1× Kinase Assay Buffer were added to the wells of the 384-well plate. • 6. Positive control: 2.5 μL/well 4× substrate/ATP mixture, 2.5 μL/well 1× Kinase Assay Buffer containing 16% DMSO, and 5 μL/well 2× c-MET kinase solution were added to the 384-well plate. The final concentration of DMSO in the reaction system was 4%. • 7. The mixture was mixed well and then centrifuged and reacted at room temperature in dark for 60 min. • 8. Termination of the enzymatic reaction: 5 μL of 4× stop solution was taken with a transfer pipette to the wells of the 384-well plate, mixed and then centrifuged, and reacted at room temperature for 5 min. • 9. Development of the reaction: 5 μL of 4× detection solution was taken with a transfer pipette to the wells of the 384-well plate for color development, and the mixture was mixed and then centrifuged and reacted at room temperature for 60 min. • 10. The 384-well plate was placed into the Envision plate reader and the signal was detected using the appropriate program. • 11. Analysis and processing of the raw data: • 12. The drug concentrations and the corresponding inhibition rates were input into GraphPad Prism5 for calculation, and the inhibition rate of the compounds were calculated as follows: inhibition rate (%)=(reading of positive well−reading of experimental well)/(reading of positive control well−reading of negative control well)×100%. Processing with GraphPad Prism5 software yielded the corresponding IC50 values (the concentration of the compound at which 50% of the highest inhibition of the enzyme is achieved).

MER kinase = MER kinase (Homo sapiens (Human), UniProt Q12866); experiment: Assay of small molecular compounds for inhibiting the activity of MER kinase (LANCE TR-FRET)
Description: The assay of small molecular compounds for inhibiting the activity of MER kinase is based on the LANCE TR-FRET technology of Perkin Elmer Inc., and the assay method is as follows: • 1. Dilution of compounds: a total of 11 concentrations were obtained using a 3-fold gradient dilution from the highest concentration of 2500 nM (the maximum final concentration of the drug used in this assay was 2500 nM, and the minimum final concentration was 0.042 nM). • 2. 2.5 μL of the gradient-diluted compounds were taken with a transfer pipette to a 384-well plate. • 3. Addition of enzyme: 5 μL of 2×MER kinase solution (with a concentration of 1 nM) was taken with a transfer pipette to the corresponding reaction well of the 384-well plate, mixed well and pre-reacted at room temperature for 5 minutes. • 4. 2.5 μL 4× ULight-labeled Ploy GT (with a concentration of 200 nM)/ATP (with a concentration of 20 μM) mixture was taken with a transfer pipette to the corresponding reaction well of the 384-well plate. • 5. Negative control: 2.5 μL/well 4× substrate/ATP mixture and 7.5 μL 1× Kinase Assay Buffer were added to the wells of the 384-well plate.
as §1, with “2×MER” for “2×TRKA”, “program. • 10. Analysis and processing of the raw data:” for “program.”
The drug concentrations and the corresponding inhibition rates were input into GraphPad Prism5 for calculation, and the inhibition rate of the compounds were calculated as follows: inhibition rate (%)=(reading of positive well−reading of experimental well)/(reading of positive control well−reading of negative control well)×100%. Processing with GraphPad Prism5 software yielded the corresponding IC50 values (the concentration of the compound at which 50% of the highest inhibition of the enzyme is achieved).

Chain of TRKA kinase (P04629 33-796): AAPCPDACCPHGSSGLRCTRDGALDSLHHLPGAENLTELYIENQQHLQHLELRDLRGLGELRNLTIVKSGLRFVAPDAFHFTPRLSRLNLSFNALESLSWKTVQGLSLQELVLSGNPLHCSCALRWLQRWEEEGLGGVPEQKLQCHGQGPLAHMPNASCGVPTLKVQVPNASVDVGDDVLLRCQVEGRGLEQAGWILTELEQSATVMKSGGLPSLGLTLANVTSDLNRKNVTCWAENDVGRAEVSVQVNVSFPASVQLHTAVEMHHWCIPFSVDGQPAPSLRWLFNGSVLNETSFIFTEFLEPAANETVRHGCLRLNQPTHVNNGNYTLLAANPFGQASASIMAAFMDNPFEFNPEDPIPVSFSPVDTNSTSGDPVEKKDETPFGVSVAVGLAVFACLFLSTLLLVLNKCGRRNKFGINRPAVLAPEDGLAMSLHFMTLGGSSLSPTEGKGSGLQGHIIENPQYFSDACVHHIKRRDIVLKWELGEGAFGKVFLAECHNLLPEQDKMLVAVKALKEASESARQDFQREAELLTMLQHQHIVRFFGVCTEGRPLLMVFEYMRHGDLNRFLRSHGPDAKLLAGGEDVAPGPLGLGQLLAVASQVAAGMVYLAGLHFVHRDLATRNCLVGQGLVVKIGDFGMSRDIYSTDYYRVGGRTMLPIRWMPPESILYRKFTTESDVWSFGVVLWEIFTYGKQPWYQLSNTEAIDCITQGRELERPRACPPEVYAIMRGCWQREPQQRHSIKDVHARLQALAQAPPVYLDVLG
Chain of MER kinase (Q12866 21-999): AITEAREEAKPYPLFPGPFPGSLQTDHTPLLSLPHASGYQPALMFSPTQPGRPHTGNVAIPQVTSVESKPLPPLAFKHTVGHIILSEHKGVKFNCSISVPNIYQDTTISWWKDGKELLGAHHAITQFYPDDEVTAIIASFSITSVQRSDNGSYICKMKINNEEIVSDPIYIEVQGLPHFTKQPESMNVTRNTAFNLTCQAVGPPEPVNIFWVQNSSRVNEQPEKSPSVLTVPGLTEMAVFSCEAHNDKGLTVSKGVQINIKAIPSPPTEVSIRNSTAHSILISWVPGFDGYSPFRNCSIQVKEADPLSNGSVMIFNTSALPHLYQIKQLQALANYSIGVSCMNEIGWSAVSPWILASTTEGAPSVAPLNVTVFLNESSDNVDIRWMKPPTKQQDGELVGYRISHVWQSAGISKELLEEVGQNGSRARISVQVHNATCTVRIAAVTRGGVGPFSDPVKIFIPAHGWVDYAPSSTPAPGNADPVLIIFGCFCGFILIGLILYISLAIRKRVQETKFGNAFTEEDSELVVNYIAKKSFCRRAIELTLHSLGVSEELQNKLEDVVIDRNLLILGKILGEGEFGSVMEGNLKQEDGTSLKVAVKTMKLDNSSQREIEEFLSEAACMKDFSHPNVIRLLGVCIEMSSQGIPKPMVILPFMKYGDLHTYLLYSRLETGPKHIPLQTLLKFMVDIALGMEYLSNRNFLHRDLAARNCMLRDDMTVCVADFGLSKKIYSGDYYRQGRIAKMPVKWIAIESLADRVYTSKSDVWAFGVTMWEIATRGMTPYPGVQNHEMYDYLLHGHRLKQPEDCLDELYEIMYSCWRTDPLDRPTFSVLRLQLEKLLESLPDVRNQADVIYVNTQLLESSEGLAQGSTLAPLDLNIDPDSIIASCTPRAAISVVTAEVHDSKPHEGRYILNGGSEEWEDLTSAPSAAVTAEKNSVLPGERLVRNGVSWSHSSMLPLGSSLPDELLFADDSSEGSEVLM
Chain of c-MET kinase (P08581 25-1390): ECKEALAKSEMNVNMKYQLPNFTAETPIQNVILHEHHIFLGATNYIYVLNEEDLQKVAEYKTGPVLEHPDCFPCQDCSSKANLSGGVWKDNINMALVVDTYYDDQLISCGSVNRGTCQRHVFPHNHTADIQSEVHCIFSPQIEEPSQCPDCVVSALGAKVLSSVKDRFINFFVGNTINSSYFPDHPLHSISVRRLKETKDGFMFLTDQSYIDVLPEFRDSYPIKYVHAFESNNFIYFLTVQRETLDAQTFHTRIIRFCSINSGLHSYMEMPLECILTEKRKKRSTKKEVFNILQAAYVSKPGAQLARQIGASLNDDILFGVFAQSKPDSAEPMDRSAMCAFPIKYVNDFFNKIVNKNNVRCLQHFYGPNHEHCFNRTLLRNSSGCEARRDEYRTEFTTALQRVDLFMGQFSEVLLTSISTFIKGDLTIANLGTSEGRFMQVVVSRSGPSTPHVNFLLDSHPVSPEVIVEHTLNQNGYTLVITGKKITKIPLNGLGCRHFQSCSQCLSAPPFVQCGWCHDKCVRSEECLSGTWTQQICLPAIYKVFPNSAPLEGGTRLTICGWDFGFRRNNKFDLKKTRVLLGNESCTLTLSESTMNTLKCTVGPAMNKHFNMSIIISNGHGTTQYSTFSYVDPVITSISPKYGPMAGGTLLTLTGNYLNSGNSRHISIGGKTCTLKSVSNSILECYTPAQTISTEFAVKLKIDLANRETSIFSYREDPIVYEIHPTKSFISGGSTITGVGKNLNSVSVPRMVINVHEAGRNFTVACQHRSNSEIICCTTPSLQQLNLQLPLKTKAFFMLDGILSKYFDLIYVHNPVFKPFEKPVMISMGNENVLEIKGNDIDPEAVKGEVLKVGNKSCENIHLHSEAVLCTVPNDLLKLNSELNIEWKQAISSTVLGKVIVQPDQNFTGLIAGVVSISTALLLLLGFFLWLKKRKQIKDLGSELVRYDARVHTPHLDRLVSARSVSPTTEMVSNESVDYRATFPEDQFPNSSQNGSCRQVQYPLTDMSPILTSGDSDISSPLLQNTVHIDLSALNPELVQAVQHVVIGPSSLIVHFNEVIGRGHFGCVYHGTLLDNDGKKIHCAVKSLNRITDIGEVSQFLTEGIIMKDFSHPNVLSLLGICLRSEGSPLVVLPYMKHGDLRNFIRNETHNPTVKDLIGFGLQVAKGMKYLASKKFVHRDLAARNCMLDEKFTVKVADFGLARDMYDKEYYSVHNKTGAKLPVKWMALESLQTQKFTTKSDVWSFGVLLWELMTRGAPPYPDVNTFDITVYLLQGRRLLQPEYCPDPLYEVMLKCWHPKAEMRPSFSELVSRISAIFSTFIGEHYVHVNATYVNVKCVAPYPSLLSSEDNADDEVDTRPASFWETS

SMILES	pIC50 (TRKA kinase)	pIC50 (c-MET kinase)	pIC50 (MER kinase)
CC(C)COc1cc2nccc(Oc3ccc(NC(=O)c4cn(C)c(=O)n(-c5ccc(F)cc5)c4=O)cc3F)c2c2c1OCCO2 [Example 83, N-(3-fluoro-4-((5-(isobutoxy)-2,3-dihydro-[1,4]dioxino[2,3-f]quinolin-10-yl)oxy)phenyl)-3-(4-fluorophenyl)-1-methyl-2,4-dioxo-1,2,3,4-tetrahydropyrimidine-5-carboxamide]	6.30 to 7.30	5.30 to 6.30	6.30 to 7.30
COc1cc2nccc(Oc3cc(Cl)c(NC(=O)c4cn(C(C)C)c(=O)n(-c5ccc(F)cc5)c4=O)cc3F)c2c2c1OCCO2 [Example 118, N-(2-chloro-5-fluoro-4-((5-methoxy-2,3-dihydro-[1,4]dioxino[2,3-f]quinolin-10-yl)oxy)phenyl)-3-(4-fluorophenyl)-1-isopropyl-2,4-dioxo-1,2,3,4-tetrahydropyrimidine-5-carboxamide]	6.30 to 7.30	6.30 to 7.30	6.30 to 7.30
CCOc1cn(-c2ccc(F)cc2C)nc1C(=O)Nc1ccc(Oc2ccnc3cc(OC)c4c(c23)OCCO4)c(F)c1 [Example 25, 1-(4-fluoro-2-methylphenyl)-N-(3-fluoro-4-((5-methoxy-2,3-dihydro-[1,4]dioxino[2,3-f]quinolin-10-yl)oxy)phenyl)-4-ethoxy-1H-pyrazole-3-carboxamide]	6.30 to 7.30	6.30 to 7.30	6.30 to 7.30
COc1cc2nccc(Oc3ccc(NC(=O)c4cn(CC(C)C)c(=O)n(-c5ccc(F)cc5)c4=O)cc3F)c2c2c1OCCO2 [Example 47, N-(3-fluoro-4-((5-methoxy-2,3-dihydro-[1,4]dioxino[2,3-f]quinolin-10-yl)oxy)phenyl)-3-(4-fluorophenyl)-1-isobutyl-2,4-dioxo-1,2,3,4-tetrahydropyrimidine-5-carboxamide]	6.30 to 7.30	≥ 7.30	6.30 to 7.30
CC(C)n1cc(C(=O)Nc2ccc(Oc3ccnc4cc(OC5COC5)c5c(c34)OCCO5)c(F)c2)c(=O)n(-c2ccc(F)cc2)c1=O [Example 89, N-(3-fluoro-4-((5-((oxetan-3-yl)oxy)-2,3-dihydro-[1,4]dioxino[2,3-f]quinolin-10-yl)oxy)phenyl)-3-(4-fluorophenyl)-1-isopropyl-2,4-dioxo-1,2,3,4-tetrahydropyrimidine-5-carboxamide]	6.30 to 7.30	6.30 to 7.30	≥ 7.30
COc1cn(-c2ccc(F)cc2C)nc1C(=O)Nc1ccc(Oc2ncnc3cc(OC)c4c(c23)OCCO4)c(F)c1 [Example 8, 1-(4-fluoro-2-methylphenyl)-N-(3-fluoro-4-((5-methoxy-2,3-dihydro-[1,4]dioxino[2,3-f]quinazolin-10-yl)oxy)phenyl)-4-methoxy-1H-pyrazole-3-carboxamide]	–	6.30 to 7.30	5.30 to 6.30

More lines, now with the values ahead:

pIC50 (TRKA kinase)	pIC50 (c-MET kinase)	pIC50 (MER kinase)	SMILES
6.30 to 7.30	≥ 7.30	≥ 7.30	COc1cc2nccc(Oc3ccc(NC(=O)c4cn(CCCN5CCOCC5)c(=O)n(-c5ccc(F)cc5)c4=O)cc3F)c2c2c1OCCO2 [Example 102, N-(3-fluoro-4-((5-methoxy-2,3-dihydro-[1,4]dioxino[2,3-f]quinolin-10-yl)oxy)phenyl)-3-(4-fluorophenyl)-1-(3-morpholinopropyl)-2,4-dioxo-1,2,3,4-tetrahydropyrimidine-5-carboxamide]
5.30 to 6.30	5.30 to 6.30	6.30 to 7.30	COc1cc2nccc(Oc3ccc(NC(=O)c4cn(C(C)C)c(=O)n(Cc5ccc(F)cc5)c4=O)cc3F)c2c2c1OCCO2 [Example 111, N-(3-fluoro-4-((5-methoxy-2,3-dihydro-[1,4]dioxino[2,3-f]quinolin-10-yl)oxy)phenyl)-3-(4-fluorobenzyl)-1-isopropyl-2,4-dioxo-1,2,3,4-tetrahydropyrimidine-5-carboxamide]
6.30 to 7.30	≥ 7.30	5.30 to 6.30	Cn1cc(C(=O)Nc2ccc(Oc3ccnc4cc(OCCCC#N)c5c(c34)OCCO5)cc2Cl)c(=O)n(-c2ccc(F)cc2)c1=O [Example 133, N-(2-chloro-4-((5-(3-cyanopropoxy)-2,3-dihydro-[1,4]dioxino[2,3-f]quinolin-10-yl)oxy)phenyl)-3-(4-fluorophenyl)-1-methyl-2,4-dioxo-1,2,3,4-tetrahydropyrimidine-5-carboxamide]
6.30 to 7.30	≥ 7.30	6.30 to 7.30	COc1cc2nccc(Oc3ccc(NC(=O)c4cn(CC5CC5)c(=O)n(-c5ccc(F)cc5)c4=O)cc3F)c2c2c1OCCO2 [Example 48, N-(3-fluoro-4-((5-methoxy-2,3-dihydro-[1,4]dioxino[2,3-f]quinolin-10-yl)oxy)phenyl)-3-(4-fluorophenyl)-1-(cyclopropylmethyl)-2,4-dioxo-1,2,3,4-tetrahydropyrimidine-5-carboxamide]
6.30 to 7.30	6.30 to 7.30	6.30 to 7.30	Cn1cc(C(=O)Nc2ccc(Oc3ccnc4cc(OCC5CC5)c5c(c34)OCCO5)c(F)c2)c(=O)n(-c2ccc(F)cc2)c1=O [Example 84, N-(3-fluoro-4-((5-(cyclopropylmethoxy)-2,3-dihydro-[1,4]dioxino[2,3-f]quinolin-10-yl)oxy)phenyl)-3-(4-fluorophenyl)-1-methyl-2,4-dioxo-1,2,3,4-tetrahydropyrimidine-5-carboxamide]
–	6.30 to 7.30	5.30 to 6.30	COc1cc2ncnc(Oc3ccc(NC(=O)c4ccn(-c5ccc(F)cc5C)n4)cc3F)c2c2c1OCCO2 [Example 7, 1-(4-fluoro-2-methylphenyl)-N-(3-fluoro-4-((5-methoxy-2,3-dihydro-[1,4]dioxino[2,3-f]quinazolin-10-yl)oxy)phenyl)-1H-pyrazole-3-carboxamide]
